From patent US20100016240A1, “FACILITATING CELLS AND DIABETES AND METHODS RELATED THERETO” (priority 2008, published 2010)

Key:
[1] = test system: CD8+/TCR- FC from NOD or NOR BM; test: Activation markers and morphology of sorted CD8+/TCR- FC cultured with CpG-ODN; format: cell-based, mouse
Experimental: (§1) FIG. 2. Expression of activation markers on FC. (A) Sorted CD8^+/TCR^− FC (100,000) from NOD or NOR BM were cultured with medium or CpG-ODN for 18 h and stained with anti-MHC Class II I-A^d, CD86 or CD80 FITC labeled mAb, or isotype controls. The data shown are representative of three experiments. (B) Level of expression of activation markers on FC with or without CpG-ODN stimulation. The results are percent of CD8^+/TCR^− FC total from 3 separate experiments. (C) The morphology of FC was examined using Wright-Giemsa staining under optical microscopy after CpG-ODN stimulation. (D) P-preDC FC were cultured with CpG-ODN or medium only. Culture cell-free supernatants were collected after 18 h and MIP-1α/CCL3, MCP-1/CCL2, RANTES/CCL5, IP-10, IL-6, GM-CSF, and TNF-α were measured by LINCO plex multiplex immunoassay.
(§2) FC were cultured alone or with 1 μM TLR-9 ligand CpG-ODN 1668 (TCCATGACGTTCCGATGCT) (SEQ ID NO:1) (GIBCO BRL Custom Primers) (13) for 18 h. Supernatants were assayed for cytokines by Linco Diagnostic (St Charles, Mo.) using LINCOplex™ Multiplex immunoassay and cells were stained with anti-CD80, anti-CD86, or anti-MHC class II I-A^d (39-10-8) FITC mAb, with appropriately matched isotype controls.
(§3) Wright-Giemsa staining was performed on cytospins of 100,000 FC after fixed in methanol. Slides were examined for dendritic morphology under optical microscopy.
We evaluated whether NOD FC resemble NOR FC in response to CpG-ODN stimulation.

[2] = test system: p-preDC FC from NOD or NOR mice; test: Chemokine and cytokine production by p-preDC FC after CpG-ODN stimulation (LINCOplex multiplex immunoassay); format: cell-based, mouse
Experimental: as §1, §2
We also examined chemokine and cytokine production by NOD and NOR p-preDC FC after CpG-ODN stimulation. In the presence of CpG-ODN, p-preDC FC produced more MIP-1α/CCL3, RANTES/CCL5, IP-10, IL-6, and TNF-α, compared to the level of those in absence of stimulation (FIG. 2D).

[3] = test system: p-preDC FC; details: cited from earlier work
[4] = test system: FC in peripheral blood of NOD mice; test: FL treatment of NOD donor mice: phenotype and morphology of FL-mobilized PB FC; format: in vivo, mouse
Experimental: (§4) FIG. 6. FL-mobilized PB FC facilitate HSC engraftment in allogeneic recipients. Recombinant human FL (expressed from CHO cells) (kindly provided by Amgen; Thousand Oaks, Calif.) was diluted in 0.1% mouse serum albumin (MSA; Sigma, St Louis, Mo.) at a concentration of 100 μg/ml. Donor NOD female mice were injected with 10 μg of FL once daily subcutaneously from day 0 to day 9. Control mice received saline injections. (A) Flow cytometric analysis of subpopulations in sorted FL-mobilized PB FC. (B) Sorted FL-PB FC were examined after Wright-Giemsa staining by optical microscopy. (C) Survival of recipients of HSC plus FL-mobilized PB FC in allogeneic model (NOD→B10). B10 recipients were conditioned with 950 cGy TBI and transplanted with […] from untreated NOD donors either alone or mixed with 30,000 purified FC from untreated NOD bone marrow, or from FL-mobilized PB FC from NOD mice. (D) and (E) Multilineage typing of representative B10 recipients of NOD HSC alone or recipients of NOD HSC plus FL-PB FC. Multilineage data are from PB 3 months after transplantation and analyzed based on the lymphoid and myeloid gate. Data shown are from one representative recipient. A total of 3 to 5 recipients were analyzed per group.
Sorted FC (purity was ≧95%) were incubated with Fc receptor block (anti-CD16/CD32) before staining with lineage-specific markers: anti-CD11 FITC, CD11b APC, CD14 FITC, NK1.1 FITC, DX5 FITC, B220 PerCP, Gr-1 APC and CD19 APC, as previously described (4). Sorted FC were analyzed for p-preDC FC as B220^+/CD11c^+/CD11b^− using Cell Quest Software (Becton Dickinson).
as §3
To test whether FL-treatment can restore the function of NOD FC, the phenotype and function of FL-PB FCs were evaluated. NOD mice were treated with FL for 10 days. FC were sorted from PB, and sorted FC were stained with B220, CD11c, CD19, NK1.1DX5, and CD11b mAbs.

[5] = test system: HSC engraftment in B10 recipients; test: Facilitation of HSC engraftment by FL-mobilized PB FC in allogeneic recipients (NOD to B10); format: in vivo, mouse
Experimental: as §4
In the syngeneic model, recipients were conditioned with 950 cGy TBI from a Cesium source (Nordion, Ontario, ON, Canada) and transplanted with 500 HSC±30,000 FC populations by tail vein injection≧6 h after irradiation (14). In the allogeneic model, recipients conditioned with 950 cGy TBI were transplanted with 5,000 HSC±30,000 FL-PB FC (4).
Engraftment of donor cells was evaluated by PBL typing using 3-color flow cytometry, as previously described (15).
It was next evaluated whether FL-treatment can restore the facilitating function of NOD FC. […] To test function of FL-PB FC, HSC were sorted from BM of untreated NOD mice and FC from the PB of FL-treated NOD mice. Conditioned B10 recipients received 5,000 HSC plus 30,000 FL-PB FC. Control mice were transplanted with 5,000 HSC±30,000 FC from BM of untreated NOD mice. […] 13% and 20% of recipients of HSC alone (n=9) or HSC plus FC (n=8) from untreated NOD mice survived over 120 days, respectively (FIG. 6C).
Three-color flow cytometric analysis was performed.

[6] = test system: NOD mice; details: cited from earlier work
[7] = test system: PB p-preDC; details: administration of FL into human volunteers; cited from earlier work
[8] = in response to CpG-ODN stimulation
[9] = with CpG-ODN compared to absence of stimulation, 18 h supernatant
[10] = FL-PB FC versus untreated NOD BM FC
[11] = NOD mice, 10 μg FL once daily s.c. for 10 days, FC sorted from PB
[12] = treatment of NOD donors with FL

CpG-ODN: TLR-9 ligand CpG-ODN 1668 (TCCATGACGTTCCGATGCT) (SEQ ID NO:1) (listed as DNA, chemistry not given here)
CD80 expression on NOD FC ([1]; NOD BM FC, 1 μM CpG-ODN, 18 h): markedly decreased
CD86 expression on NOD FC ([1]; NOD BM FC, 1 μM CpG-ODN, 18 h): up-regulated
Morphology of NOD FC ([1]; NOD FC after CpG treatment, Wright-Giemsa): did not exhibit a mature morphology
CD86 expression on NOR FC ([1]; NOR BM FC, 1 μM CpG-ODN, 18 h): up-regulated
Morphology / activation state of NOR FC ([1]; NOR FC after CpG-ODN stimulation, compared to NOD FC, Wright-Giemsa): more activated state
IL-6 amount, NOR p-preDC FC compared to NOD p-preDC FC ([2]; after CpG-ODN stimulation): 5 ×
MIP-1α/CCL3 amount, NOR p-preDC FC compared to NOD p-preDC FC ([2]; after CpG-ODN stimulation): 2.1 ×
RANTES/CCL5 amount, NOR p-preDC FC compared to NOD p-preDC FC ([2]; after CpG-ODN stimulation): 3.5 ×
TNF-α amount, NOR p-preDC FC compared to NOD p-preDC FC ([2]; after CpG-ODN stimulation): 1.9 ×
GM-CSF production by NOD p-preDC FC [2, 8]: do not
GM-CSF production by NOR p-preDC FC [2, 8]: more efficiently
IL-6 production by p-preDC FC [2, 9]: produced more
IP-10 production by p-preDC FC [2, 9]: produced more
MIP-1α/CCL3 production by p-preDC FC [2, 9]: produced more
RANTES/CCL5 production by p-preDC FC [2, 9]: produced more
TNF-α production by p-preDC FC [2, 9]: produced more
Interferon (IFN)-α and tumor necrosis factor (TNF)-α production by p-preDC FC ([3]; in response to TLR-9 ligand (CpG-ODN) stimulation): produce
CD4+/CD25- T cells differentiation into CD4+/CD25+/FoxP3+ Treg cells in vitro ([3]; p-preDC FC stimulated with CpG-ODN): promote

B1: FL: Recombinant human FL (expressed from CHO cells), provided by Amgen; human FLT3 ligand sequence shown in SEQ ID NO:2 (protein)
chain: MTVLAPAWSPTTYLLLLLLLSSGLSGTQDCSFQHSPISSDFAVKIRELSDYLLQDYPVTVASNLQDEELCGGLWRLVLAQRWMERLKTVAGSKMQGLLERVNTEIHFVTKCAFQPPPSCLRFVQTNISRLLQETSEQLVALKPWITRQNFSRCLELQCQPDSSTLPPPWSPRPLEATAPTAPQPPLLLLLLLPVGLLLLAAAWCLHWQRTRRRTPRPGEQVPPVPSPQDLLLVEH
modifications: Homo sapien
Percentage of CD19+ FC [4, 10]: remained at same levels
Percentage of p-preDC FC [4, 10]: remained at same levels
B220-/CD11c+/CD11b+ DC subpopulation in FL-PB FC [4, 11]: significant increase
NK1.1+DX5+ subpopulation in FL-PB FC [4, 11]: significant increase
Total number of FCs in peripheral blood [4, 12]: expanded
Activation state (dendritic morphology) of FL mobilized NOD PB FC ([4]; versus untreated NOD BM FC, Wright-Giemsa): more activated state
Recipients survived 120 days ([5]; B10 recipients (950 cGy TBI) of 5,000 untreated NOD HSC plus 30,000 PB FC from FL-treated NOD mice, n=8): 63%
Engraftment of HSC ([5]; HSC plus PB FC from FL-treated NOD mice in B10 recipients): significantly enhanced
Multilineage donor chimerism ([5]; recipients of HSC plus FL-PB FC, followed >4 months, three-color flow cytometry): showed donor chimerism for multilineages
Facilitating function of NOD FC in vivo [5, 12]: restored
Diabetes progression ([6]; FL treatment of NOD mice): significant delay
Production of defective mature myeloid DC, plasmacytoid DC in spleen and pancreatic lymph nodes ([6]; FL treatment of NOD mice): restored production
Treg in pancreatic lymph nodes ([6]; FL treatment of NOD mice): significantly increased
Insulitis and progression to diabetes ([6]; prediabetic NOD mice treated with FL): significantly decreased
Number of PB p-preDC in humans [7]: increase
